ChEMBL document CHEMBL4765250, “Discovery of hydrazone containing thiadiazoles as Mycobacterium tuberculosis growth and enoyl acyl carrier protein reductase (InhA) inhibitors” (Eur J Med Chem, 2020)
In brackets after ≈: the same amount, converted by molar mass.

Key:
[1] = system: Mycobacterium tuberculosis; assay: Antitubercular activity against Mycobacterium tuberculosis H37Rv measured after 7 days by MABA method; format: functional; conditions: 168 h, time 7 day
[2] = system: Mycobacterium tuberculosis; assay: Antitubercular activity at Mycobacterium tuberculosis H37Rv in nutrition starved condition medium assessed as log reduction of cell growth at 10 ug/ml measured after 7 days by MPN method; format: functional; conditions: dose 10 µg/ml; time 7 day
[3] = Cytotoxicity against mouse RAW264.7 cells assessed as decrease cell viability at 50 ug/ml measured after 48 hrs by MTT assay; format: cell-based; conditions: at 50 µg/mL, read-out: INH
[4] = Solubility of compound in aqueous buffer at pH 6.8; format: physicochemical
[5] = target: T1, Enoyl-[acyl-carrier-protein] reductase [NADH] (Mycobacterium tuberculosis) (UniProt P9WGR1); assay: Inhibition of wild type InhA in Mycobacterium tuberculosis H37Rv using trans-2-dodecenoyl-coenzyme A as substrate at 5 uM
T1 sequence (whole entry): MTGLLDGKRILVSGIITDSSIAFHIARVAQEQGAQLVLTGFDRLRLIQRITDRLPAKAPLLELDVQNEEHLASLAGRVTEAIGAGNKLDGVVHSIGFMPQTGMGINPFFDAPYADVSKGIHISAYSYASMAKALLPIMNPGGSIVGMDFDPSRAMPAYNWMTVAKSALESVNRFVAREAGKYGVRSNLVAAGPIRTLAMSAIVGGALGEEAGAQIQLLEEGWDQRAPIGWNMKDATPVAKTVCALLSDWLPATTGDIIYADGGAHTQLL

Row | Structure (SMILES) | MIC [1] [µM] | FC [2] | cytotoxicity at 48 h, 50 ug/ml [3] [%] | solubility [4] | inhibition [5] [%]
1 | CO[C@H]1/C=C/O[C@@]2(C)Oc3c(C)c(O)c4c(O)c(c(/C=N/N5CCN(C)CC5)c(O)c4c3C2=O)NC(=O)/C(C)=C\C=C\[C@H](C)[C@H](O)[C@@H](C)[C@@H](O)[C@@H](C)[C@H](OC(C)=O)[C@@H]1C [RIFAMPIN] | 0.12 (≈ 0.0988 µg/mL) | 1.6 | – | – | –
2 | Cc1ccc(/C=N/Nc2nsc(Nc3ccc(I)cc3)n2)cc1 | 3.59 (≈ 1.56 µg/mL) | – | 21.1 | – | –
3 | Ic1ccc(Nc2nc(N/N=C/c3ccccc3)ns2)cc1 | 59.4 (≈ 25 µg/mL) | – | – | Insoluble | –
4 | Cc1ccc(/C=N/Nc2nsc(Nc3ccc(Br)cc3)n2)cc1 | > 64.4 | – | – | – | –
5 | COc1ccc(Nc2nc(N/N=C/c3ccccc3)ns2)cc1 | 2.4 (≈ 0.781 µg/mL) | 2.2 | 24.6 | – | –
6 | O=[N+]([O-])c1ccc(Nc2nc(N/N=C/c3ccccc3)ns2)cc1 | 73.5 (≈ 25 µg/mL) | – | – | – | –
7 | C(=N\Nc1nsc(Nc2ccccc2)n1)/c1ccccc1 | > 84.8 | – | – | – | –
8 | Fc1ccc(Nc2nc(N/N=C/c3ccccc3)ns2)cc1 | > 79.9 | – | – | – | –
9 | Clc1ccc(Nc2nc(N/N=C/c3ccccc3)ns2)c(Cl)c1 | 4.29 (≈ 1.56 µg/mL) | – | – | – | –
10 | NNC(=O)c1ccncc1 [ISONIAZID] | 0.36 (≈ 0.0494 µg/mL) | 1.4 | – | – | –
11 | Cc1ccc(/C=N/Nc2nsc(Nc3ccc([N+](=O)[O-])cc3)n2)cc1 | > 70.6 | – | – | – | –
12 | Cc1ccc(/C=N/Nc2nsc(Nc3ccc(Cl)cc3Cl)n2)cc1 | 8.27 (≈ 3.13 µg/mL) | – | 33.1 | – | 48
13 | Cc1ccc(/C=N/Nc2nsc(Nc3ccc(C(F)(F)F)cc3)n2)cc1 | 16.6 (≈ 6.26 µg/mL) | – | 29.1 | – | 35
14 | Cc1ccc(/C=N/Nc2nsc(Nc3ccc(C)cc3)n2)cc1 | > 77.4 | – | – | – | –
15 | Cc1ccc(/C=N/Nc2nsc(Nc3ccccc3)n2)cc1 | > 80.9 | – | – | – | –
16 | Brc1ccc(Nc2nc(N/N=C/c3ccccc3)ns2)cc1 | 4.17 (≈ 1.56 µg/mL) | – | 25.8 | – | 39
17 | COc1ccc(Nc2nc(N/N=C/c3ccc(C)cc3)ns2)cc1 | > 73.8 | – | – | – | –
18 | CC[C@@H](CO)NCCN[C@@H](CC)CO [ETHAMBUTOL] | 7.6 (≈ 1.55 µg/mL) | – | – | – | –
19 | Cc1ccc(/C=N/Nc2nsc(Nc3ccc(F)cc3)n2)cc1 | > 76.5 | – | – | – | 26
20 | FC(F)(F)c1ccc(Nc2nc(N/N=C/c3ccccc3)ns2)cc1 | 34.4 (≈ 12.5 µg/mL) | – | – | – | –
21 | Cc1ccc(Nc2nc(N/N=C/c3ccccc3)ns2)cc1 | 2.52 (≈ 0.78 µg/mL) | 2.4 | 31.5 | – | 48
